Assay results as given in ChEMBL document CHEMBL1201862, “PubChem BioAssay data set” (2004).
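Cells were grown in 96-well plates and exposed to each compound for 48 hours at five concentrations; endpoints were interpolated linearly between bracketing concentrations, or set to the highest concentration if not reached. Here, GI50 denotes the concentration required for 50% inhibition of growth.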 Active and inactive are the calls of the source. Cut-off read from the data, not from the text of the source: active = GI50 up to about 1.1 µM and inactive = higher.

How the values were obtained:
Experiment in all cases: inhibition of tumour cell growth, NCI panel, 48 h
[1] = tested on: UACC-62
[2] = tested on: T47D
[3] = tested on: ACHN
[4] = tested on: SK-MEL-5
[5] = tested on: SF-268
[6] = tested on: M14
[7] = tested on: NCI-H23
[8] = tested on: NCI/ADR-RES
[9] = tested on: A549
[10] = tested on: NCI-H226
[11] = tested on: CAKI-1
[12] = tested on: HCC 2998
[13] = tested on: A498
[14] = tested on: HT-29
[15] = tested on: HOP-62
[16] = tested on: OVCAR-5
[17] = tested on: SK-MEL-28
[18] = tested on: TK-10
[19] = tested on: OVCAR-8
[20] = tested on: OVCAR-4

Measured: GI50

O=C(c1cccs1)N1CCc2ccccc2C1
inactive: [1] > 100 µM | [2] > 100 µM | [3] > 100 µM | [4] 62.4 µM | [5] > 100 µM | [6] > 100 µM | [7] > 100 µM | [8] 42.1 µM | [9] > 100 µM | [10] > 100 µM | [11] > 100 µM | [12] > 100 µM | [13] > 100 µM | [14] > 100 µM | [15] > 100 µM | [16] > 100 µM | [17] > 100 µM | [18] > 100 µM

COC(=O)C(Cc1ccccc1)NC(=O)C(CCCNC(=N)N)NC(=O)OCc1ccccc1 (stereo not drawn)
inactive: [1] > 100 µM | [2] > 100 µM | [3] > 100 µM | [4] > 100 µM | [5] > 100 µM | [6] > 100 µM | [7] > 100 µM | [8] > 100 µM | [19] > 100 µM | [9] > 100 µM | [10] > 100 µM | [11] > 100 µM | [12] > 100 µM | [14] > 100 µM | [15] > 100 µM | [16] > 100 µM | [17] > 100 µM | [18] > 100 µM | [20] > 100 µM

OC(c1cccs1)c1cc2ccccc2s1 (stereo not drawn)
inactive: [1] > 10 µM | [2] > 10 µM | [3] > 10 µM | [4] > 10 µM | [5] > 10 µM | [6] > 10 µM | [7] > 10 µM | [8] > 10 µM | [19] > 10 µM | [9] > 10 µM | [10] > 10 µM | [11] > 10 µM | [12] > 10 µM | [14] > 10 µM | [15] > 10 µM | [16] > 10 µM | [17] > 10 µM | [18] > 10 µM | [20] > 10 µM

S=C1CSc2c(ccc3ccccc23)N1
inactive: [1] > 100 µM | [2] > 100 µM | [3] > 100 µM | [4] > 100 µM | [5] > 100 µM | [6] > 100 µM | [7] > 100 µM | [8] > 100 µM | [19] > 100 µM | [9] 67.1 µM | [10] > 100 µM | [11] > 100 µM | [14] > 100 µM | [15] > 100 µM | [16] > 100 µM | [17] > 100 µM | [18] > 100 µM | [20] > 100 µM

Cc1cc(=O)n2nc(CSc3nnc(N)s3)sc2n1
inactive: [1] > 100 µM | [2] > 100 µM | [3] > 100 µM | [4] > 100 µM | [5] > 100 µM | [6] > 100 µM | [7] > 100 µM | [8] > 100 µM | [19] > 100 µM | [9] > 100 µM | [10] > 100 µM | [11] > 100 µM | [12] > 100 µM | [14] > 100 µM | [15] > 100 µM | [16] > 100 µM | [17] > 100 µM | [18] > 100 µM | [20] > 100 µM

CCc1cc2c(c3c1CCC3=O)CC1(Cc3ccc(C)cc3C1)C2 (stereo not drawn)
inactive: [1] 22.2 µM | [2] 14.1 µM | [3] 27.3 µM | [4] 18.9 µM | [6] > 100 µM | [7] > 100 µM | [8] > 100 µM | [19] > 100 µM | [9] 18.2 µM | [10] 13.5 µM | [12] 33.9 µM | [13] 27.4 µM | [14] 18.1 µM | [15] > 100 µM | [16] 29.4 µM | [18] > 100 µM | [20] 33.2 µM

COc1ccc(-n2c(=O)n(C)c(=O)n2-c2ccc(OC)cc2)cc1
inactive: [1] > 100 µM | [2] > 100 µM | [3] > 100 µM | [4] > 100 µM | [5] > 100 µM | [6] > 100 µM | [7] > 100 µM | [8] > 100 µM | [19] > 100 µM | [9] > 100 µM | [10] > 100 µM | [11] > 100 µM | [13] > 100 µM | [14] > 100 µM | [15] > 100 µM | [16] > 100 µM | [17] > 100 µM | [18] > 100 µM
